# Test results published in article PMC10017700, “The SMARCA4^R1157W mutation facilitates chromatin remodeling and confers PRMT1/SMARCA4 inhibitors sensitivity in colorectal cancer” (NPJ Precision Oncology, 2023).
# Columns and labels:
# SMARCA2 and SMARCA4 = conditions: SMARCA bromodomain inhibitor; cited from earlier work
# Text: However, SMARCA2, another core subunit of the SWI/SNF complex with ATPase activity, also harbors a highly conserved HELICc domain (Supplementary Fig. 7a). […] It would be interesting to test whether other HELICc domain-containi ...
# [1] = tested on: SMARCA4-WT HCT116 cell line-derived xenograft; test: CDX mouse model, SMARCA4-WT; type: in vivo, BALB/c female nude mice; conditions: oral, 14 days
# Experimental: (§1) To establish cell line-derived xenograft (CDX) mouse models, 6-week-old BALB/c female nude mice were obtained from the Model Animal Research Center of Nanjing University (Nanjing, China). All animal experimental procedures were approved by the Animal Ethical and Welfare Committee of Nanjing University. Approximately 5 × 10^6 SMARCA4 wild-type or R1157W mutant HCT116 cells were injected subcutaneously into the right flank of each mouse. The mice were randomized into 4 groups (6 mice/group) when the tumor volume reached approximately 80 mm^3 (volume = 0.52 × length × width^2), at which point drug dosing every day was initiated. GSK-PTi (GSK3368715, HY-128717A, MCE)[32] and BBAi-1 (BRM/BRG1 ATP inhibitor-1, HY-119374, MCE)[33] were dissolved in 10% DMSO, 90% saline (containing 20% SBE-β-CD). GSK-PTi (25 mg/kg) and BBAi-1 (2.5 mg/kg) were administered orally. Body weight and tumor volume of the mice were measured every two days. Treatments were continued for 14 days, after which all mice were euthanized for analysis. Tumor tissues were weighed and prepared for immunoblotting or immunohistochemical staining. Tumor growth inhibition (TGI) rate was measured using the formula: TGI (%) = [1−(Vt−V0 in treated group)/Vt−V0 in vehicle group)]×100 where Vt is the volume on each day and V0 is the volume at the beginning of the treatment.
# [2] = tested on: SMARCA4-R1157W mutant HCT116 cell line-derived xenograft; test: CDX mouse model, SMARCA4-R1157W; type: in vivo, BALB/c female nude mice; conditions: oral, 14 days
# Experimental: as §1
# [3] = tested on: ATP (ATPase activity of SMARCA4); test: ATPase kinetic assay (ATPase activity assay kit); type: biochemical
# Experimental: An ATPase activity assay kit (#MAK113, Sigma,) was used to measure the Kinetic parameters (Vmax, Km, and Kcat) of SMARCA4 on ATP. In detail, SMARCA4-WT and -R1157W mutant proteins were incubated with saturating amounts of plasmid DNA and various concentrations of ATP. Reaction rates were determined by quantitating the fraction of ATP hydrolyzed at multiple time points. Kinetic parameters were determined by fitting the initial rate data to the Michaelis–Menten equation using the Origin software. All reactions were performed in triplicate.
# [4] = tested on: ATP (ATPase activity of SMARCA4); test: ATPase assay, γ-32P ATP thin-layer chromatography; type: biochemical; conditions: in the presence of DNA, TLC, 30 °C, 0-90 min, Fig. 4b
# Experimental: The ATPase assays were performed as described previously with modifications. The 20 μl reactions contained 50 mM Tris (pH 7.5), 50 mM NaCl, 8 mM MgCl2, 0.5 mM PMSF, 2 mM ATP, 2 mM DTT, and 1 μg of a 1 kb DNA fragment. The reaction was initiated by adding 1 μl of 10 mCi/ml [γ-^32P] ATP (3000 Ci/mmole; PerkinElmer) and 1 μg of SMARCA4 wild-type or mutant proteins. The reactions were then incubated at 30 °C for the indicated times (0, 15, 30, 60, and 90 min) and were stopped by the addition of 5 μl of 500 mM EDTA. One microliter of the reaction mixture was spotted onto PEI-cellulose TLC plates (Merck), and chromatography was run in 0.5 M LiCl, 1 M formic acid. The ratio of inorganic phosphate to ATP at each time point was quantified using a Molecular Dynamics Phosphorimager (Amersham Biosciences) and ImageQuant TL software.
# mononucleosomes = test: Nucleosome sliding assay; type: biochemical; conditions: 60 or 90 min, 30 °C, 2 mM ATP, Fig. 4c
# Experimental: The nucleosome sliding assay was performed as previously described with several modifications[41],[47]. A 255 bp DNA template from the Widom 601 positioning sequence[48] was assembled into mononucleosomes by the “salt jump” method in the presence of core histones isolated from HeLa cells. Mononucleomes (100 ng DNA) were incubated with wild-type or mutant SMARCA4 proteins (100 ng) in 40 μl reactions containing 20 mM HEPES–NaOH (pH 7.9), 50 mM MgCl2, 1 mM DTT, 0.1 mM PMSF, 0.1 mg/ml BSA, 3% glycerol, 0.02% NP-40, 0.02% Triton X-100, 2 mM ATP at 30 °C for 0, 30, 60, or 90 min. Reactions were quenched by the addition of 20 mM EDTA and 1% glycerol. Samples were resolved by 6% native polyacrylamide/0.5×TBE gel electrophoresis and visualized by SYBR green staining (Invitrogen).
# [5] = GSK-PTi 25 mg/kg and/or BBAi-1 2.5 mg/kg, daily, 6 mice/group
# [6] = over 2-fold higher, Supplementary Fig. 5c, d
# [7] = saturating plasmid DNA, various ATP concentrations, Michaelis–Menten fit, triplicate, mean ± SD
compound,measurement,setting,value
O=C(/C=C/N1C[C@H]2C[C@@H]1CN2c1ccccn1)c1ccccc1O [PFI-3],differentiation between SMARCA2 and SMARCA4,SMARCA2 and SMARCA4,could not differentiate between SMARCA2 and SMARCA4
CCOCC1(COCC)CCC(c2[nH]ncc2CN(C)CCNC)CC1 [GSK-PTi],tumor growth inhibition (TGI) rate,[1]; [5],23%
same,therapeutic effect of daily single treatment,[1],moderate therapeutic effect
same,tumor growth inhibition (TGI) rate,[2]; [5],45.3%
same,therapeutic effect of daily single treatment (versus SMARCA4-WT CDX),[2],better therapeutic effect
same,effect in SMARCA4-R1157W mutant versus SMARCA4-WT model mice,"[2]; daily, comparison of the two model mouse groups",no statistically significant differences
SMARCA4-WT mutant: as printed; probably misprint for SMARCA4-R1157W mutant protein,Kcat relative to SMARCA4-WT protein,[3]; [6],over 2 fold
same,Vmax relative to SMARCA4-WT protein,[3]; [6],over 2 fold
SMARCA4-R1157W: R1157W mutant SMARCA4 protein,Kcat / Km,"[3]; saturating plasmid DNA, various ATP concentrations",17.47 M⁻¹ s⁻¹
same,Kcat,[3]; [7],0.00242 ± 6.7e-05 s⁻¹
same,Km,[3]; [7],138 ± 17.4 µM
same,Vmax,[3]; [7],241.6 ± 8.16 mM/min/mg
same,ATPase activity compared to SMARCA4-WT,[4],significantly augmented
same,lateral sliding of centrally positioned nucleosomes compared to SMARCA4-WT,mononucleosomes,further catalyzed lateral sliding of centrally positioned nucleosomes
